Laboratory results as given in patent US6641783B1, “Chromatographic systems with pre-detector eluent switching” (priority 1999, dated 2003).

Tests used:
[1] = Capacity factor of the test solute on a C8 HPLC column; type: physicochemical; settings: 15% acetonitrile in PBS, 1 mL/min
Description: (§1) The chromatographic process represents a reversible equilibrium of solutes between the mobile phases and the stationary phases. The magnitude of solute retention is a direct result from this equilibrium and is typically expressed by a parameter, the capacity factor, k′=(tr−to)/to where to is the dead time and tr is the retention time of the solutes. The capacity factor is therefore a stoichiometric mass distribution equilibrium of solutes between the mobile phases and the stationary phases, and its determination allows the calculation of various physicochemical values according to pre-determined algorithms.
(§2) Unless otherwise indicated, the experimental data reported in this section was collected under the following conditions: UV detection at 280 nm, UV flow cell: 14 μL, mobile phase: 15% acetonitrile in PBS buffer at 1 mL/min., injection volume: 10 μL (sample amount: 2 μg), eluent switch rate: 1 Hz/column, and one pump per column (one binary pump used at two different pumps).
(§3) Retention time data is reported as capacity factors k′=(tr−to)/to. The most critical preliminary data to obtain, however, was to experimentally determine the minimum peak washing times (volumes) needed to obtain good chromatographic peak characterization with the hardware designed and assembled as shown in FIG. 7. […]

[2] = Capacity factor of the test solute on an immobilized artificial membrane HPLC column; type: physicochemical; settings: EsterIAM.PC C10/C3 column, 15% acetonitrile in PBS, 1 mL/min
Description: as §1, §2, §3

[3] = Eluent Switch (parallel chromatography), 1 Hz/column
[4] = No Switch (single column chromatography)

## COc1ccc(C)cc1 [4-methylanisole]
[1]; [3]
  k′ (Capacity factor): 23.71
[1]; [4]
  k′ (Capacity factor): 23.04
[2]; [3]
  k′ (Capacity factor): 7.13
[2]; [4]
  k′ (Capacity factor): 7.48
